Among the data in ChEMBL document CHEMBL1140144 (J Med Chem, 2008) are Ki values, retold here.

For assay [1], the target named is T1, Protease (Human immunodeficiency virus 1, UniProt Q9YQ12). Kind of assay: Inhibition of wild type HIV1 protease by competitive binding.
For assay [2], the target named is T1, Protease. As to the kind of experiment: Inhibition of wild type HIV1 protease by uncompetitive binding.

By Ki is commonly meant the equilibrium dissociation constant of an inhibitor or competing ligand from its target. Read a low Ki as tighter binding. Turning to `CC(C)CN(C[C@@H](O)[C@H](Cc1ccccc1)NC(=O)O[C@H]1CCOC1)S(=O)(=O)c1ccc(N)cc1`, the figures for the inhibition constant (Ki) at Protease [1] and at Protease [2] were 6.2 nM and 28 nM, respectively.
